Values quoted from earlier work in patent US20240299301A1, “LIPID NANOPARTICLES AND METHOD FOR PREPARING SAME” (THERNA THERAPEUTICS, priority 2021, published 2024).

CCCCC/C=C\C/C=C\CCCCCCCCC(CCCCCCCC/C=C\C/C=C\CCCCC)OC(=O)CCCN(C)C [DLin-MC3-DMA, (6Z, 9Z, 28Z, 31Z)-heptatriaconta 6,9,28,31-tetraen-19-yl 4-(dimethylamino)butanoate]
pKa of the amine group: about 6.5
